Source: patent US20080057138A1, “RESTORATIVE SKIN CREAM” (Telford Holdings Ltd., priority 2006, published 2008)

Tests used:
[1] = test system: sunburns; conditions: cited from earlier work; for SPF equivalent: topical application, background section, no trial described
[2] = test system: photo ageing; experiment: Example 2: side effects in patients treated for photo ageing, topical tretinoin versus formulations of the invention; type: in vivo, human
Description: In a trial conducted by a practicing dermatologist, involving 267 patients undergoing treatment for photo ageing using slowly increasing strengths of topical tretinoin, side effects were frequent and prolonged. An average of 3.7 reactions sufficiently severe to cause discontinuation of therapy were experienced and each reaction required discontinuation of treatment for an average of 7.7 days. Only 14% of patients were able to be treated without side effects at the commercially available strength of 0.1% tretinoin. […] The side effects were mild and were ameliorated by re-introducing the regime as alternate day treatment in the areas of irritation. Only 1.5% of patients were unable to tolerate the regime.

[3] = test system: photo aging; experiment: open label proof of concept trials over 5 years in 300 patients, reversal of photo aging; type: in vivo, human
Description: Animal models have an inherent limitation and are not necessarily directly applicable to humans. For example, various mammalian species have different metabolic characteristics. In particularly, most animals have the capacity to manufacture their own vitamin C.
Indeed, the studies appear to indicate a synergetic effect between vitamins C and E in the morning, and vitamins A and E in the evening.

[4] = test system: sunburns; experiment: ability to prevent sunburns (SPF equivalent) after topical application; type: in vivo, human
Description: Each of the three vitamins A, C and E, and complexes thereof, when topically applied individually at therapeutic levels, markedly increases the ability of the skin to absorb free radicals. Each vitamin molecule, as a measurement of this effect, adds the ability to absorb 2 MEDs (minimal erythema dose) of energy or a total of 6 MEDS if all three vitamins are present simultaneously. […] SPF (Sun Protection Factor) is a recognized measure of ultraviolet screen ability. Simultaneous application of a tri-vitamin regimen of vitamins A, C and E can result in an SPF equivalent of 24. Use of the three vitamins together in effective amounts results in enhanced protection of the skin against sunburn and, unlike sunscreens per se, persists in effect until the molecules are consumed by the body. […] The enhancement of photo protection by the tri-vitamin therapy according to the invention is particularly important as a solar spectrum (UVA, UVB) sun protectant. The effects of simultaneous use of the tri-vitamin regime and sunscreens are additive.
One measure of the activity has been to assess the ability to prevent sunburns.

[5] = test system: sunburns; experiment: Example 4: UVB sunburn study in 34 volunteers, test compounds applied before or after 1 or 3 MEDs of UVB; type: in vivo, human; conditions: for prevention of the development of sunburns: applied daily for 3 days before 1 or 3 MEDs of UVB; for treatment of the induced sunburns, review of the data of the left side: left side of the back
Procedure: In a study conducted by a practicing dermatologist, after informed consent, 34 volunteers were treated in the following manner. On the left side of the back, one inch squares were marked and treated daily for 3 days with 12 test compounds including a control of vehicle and a commercial identified sunscreen. After determining the MED (minimal erythema dose) for each subject, each subject was treated with one or 3 MEDs of UVB on both sides of the back. On the right side, 18 test compounds were applied including a vehicle control post sunburn at 0 hours, 8 hours, 24 and 48 hours. Measurements of the severity of the burns were recorded as the end point at 8, 24 and 48 hours.

SMILES	SPF equivalent [1]	effect on sunburn [4]	prevention of the development of sunburns [5]	treatment of the induced sunburns, review of the data of the left side [5]	also measured
CC1=C(/C=C/C(C)=C/C=C/C(C)=C/CO)C(C)(C)CCC1 [retinol]	20	–	–	–	–
CC1=C(/C=C/C(C)=C/C=C/C(C)=C/C(=O)O)C(C)(C)CCC1 [tretinoin, all-trans retinoic acid]	–	–	–	–	average discontinuation of treatment per reaction ([2]; 267 patients): 7.7 days; average reactions sufficiently severe to cause discontinuation of therapy ([2]; 267 patients, slowly increasing strengths): 3.7; patients able to be treated without side effects ([2]; at commercially available strength of 0.1%): 14%
CCCCCCCCCCCCCCCC(=O)OC/C=C(C)/C=C/C=C(C)/C=C/C1=C(C)CCCC1(C)C [vitamin A palmitate, retinyl palmitate]	20	–	–	–	frequency of irritation ([3]; compared with topical tretinoin): markedly reduced frequency of irritation
O=C1O[C@H]([C@@H](O)CO)C(O)=C1O [vitamin C, L-ascorbic acid]	–	effective in reducing sunburns	able to prevent the development of sunburns	significant visible improvement	persistence of photoprotection ([1]; following a single application): at least 4 days
Cc1c(C)c2c(c(C)c1O)CC[C@@](C)(CCC[C@H](C)CCC[C@H](C)CCCC(C)C)O2 [vitamin E, α-tocopherol]	–	significantly ameliorated the signs and symptoms of sunburn	able to prevent the development of sunburns	significant visible improvement	treatment of sunburns ([5]; applied post sunburn): statistically visible significant treatment benefit; clinical effect on photo aging ([3]; topical): enhance reversal of photo aging
